# Experimental data from ChEMBL document CHEMBL1201862, “PubChem BioAssay data set” (2004).
#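 Compound exposure: 48 hours, 5 concentrations, 96-well plates. GI50: concentration for 50% inhibition of growth.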 Calls of active or inactive are those of the source. Rule as the data show it: active = GI50 up to about 1.1 µM and inactive = higher.
# Experiments:
# Test in all cases: NCI tumour cell line growth inhibition, 48 h
# [1] = system: SF-295
# [2] = system: UACC-257
# [3] = system: NCI/ADR-RES
# [4] = system: MDA-MB-231
# [5] = system: ACHN
# [6] = system: IGROV-1
# [7] = system: HCT-15
# [8] = system: RPMI-8226
# [9] = system: LOX IMVI
# [10] = system: UO-31
# [11] = system: A549
# [12] = system: CAKI-1
# [13] = system: SN12C
# [14] = system: NCI-H23
# [15] = system: MDA-MB-435
# [16] = system: SNB-19
# [17] = system: HCT-116
# [18] = system: OVCAR-8
# [19] = system: SK-MEL-28
# [20] = system: SF-539
# [21] = system: Malme-3M
# [22] = system: U-251
# [23] = system: OVCAR-3
# [24] = system: Hs-578T
# [25] = system: SW-620
# [26] = system: EKVX
# [27] = system: UACC-62
# [28] = system: 786-0
# [29] = system: COLO 205
# [30] = system: NCI-H522
# [31] = system: OVCAR-5
# [32] = system: T47D
# [33] = system: HT-29
# [34] = system: SK-MEL-2
# [35] = system: SK-MEL-5
# [36] = system: KM12
# [37] = system: HL-60
# [38] = system: CCRF-CEM
# [39] = system: A498
# [40] = system: BT-549
# [41] = system: SF-268
# [42] = system: PC-3
# [43] = system: DU-145
# [44] = system: MCF7
# [45] = system: HCC 2998
# [46] = system: K562
# [47] = system: M14
# [48] = system: SR
# [49] = system: TK-10
# [50] = system: HOP-62
# [51] = system: RXF 393
# [52] = system: NCI-H460
# [53] = system: OVCAR-4
# [54] = system: HOP-92
# [55] = system: SNB-75
# [56] = system: SK-OV-3
# [57] = system: NCI-H226
# [58] = system: MOLT-4
compound,measurement,setting,value
O=C(Oc1c(I)ccccc1=O)c1ccc([N+](=O)[O-])cc1,GI50,[1],23.2 µM (inactive)
same,GI50,[2],17 µM (inactive)
same,GI50,[3],40.6 µM (inactive)
same,GI50,[4],23.3 µM (inactive)
same,GI50,[5],24.8 µM (inactive)
same,GI50,[6],14.9 µM (inactive)
same,GI50,[7],12.9 µM
same,GI50,[8],23.2 µM (inactive)
same,GI50,[9],19.6 µM (inactive)
same,GI50,[10],17.3 µM (inactive)
same,GI50,[11],21.6 µM (inactive)
same,GI50,[12],24.4 µM (inactive)
same,GI50,[13],20.4 µM (inactive)
same,GI50,[14],42.4 µM (inactive)
same,GI50,[15],19.4 µM (inactive)
same,GI50,[16],20.4 µM (inactive)
same,GI50,[17],26.1 µM (inactive)
same,GI50,[18],22.3 µM (inactive)
same,GI50,[19],8.09 µM (inactive)
same,GI50,[20],17.9 µM (inactive)
same,GI50,[21],14.6 µM (inactive)
same,GI50,[22],16.8 µM (inactive)
same,GI50,[23],13.6 µM (inactive)
same,GI50,[24],24.8 µM (inactive)
same,GI50,[25],30.1 µM (inactive)
same,GI50,[26],12.4 µM (inactive)
same,GI50,[27],22.6 µM (inactive)
same,GI50,[28],26.9 µM (inactive)
same,GI50,[29],14.7 µM (inactive)
same,GI50,[30],17.7 µM (inactive)
same,GI50,[31],35.5 µM (inactive)
same,GI50,[32],0.0785 µM (active)
same,GI50,[33],12.3 µM (inactive)
same,GI50,[34],20.5 µM (inactive)
same,GI50,[35],0.51 µM (active)
same,GI50,[36],18.9 µM (inactive)
same,GI50,[37],18.2 µM (inactive)
same,GI50,[38],22.5 µM (inactive)
same,GI50,[39],0.409 µM (active)
same,GI50,[40],18.6 µM (inactive)
same,GI50,[41],15.5 µM (inactive)
same,GI50,[42],27.4 µM (inactive)
same,GI50,[43],11.7 µM (inactive)
same,GI50,[44],17.2 µM (inactive)
same,GI50,[45],23.2 µM (inactive)
same,GI50,[46],24.2 µM (inactive)
same,GI50,[47],26.2 µM (inactive)
same,GI50,[48],4.34 µM (inactive)
same,GI50,[49],30.8 µM (inactive)
same,GI50,[50],33.3 µM (inactive)
same,GI50,[51],3.08 µM (inactive)
same,GI50,[52],11.4 µM (inactive)
CCCCCCCCC[C@@H]1C[C@@H]2CCC3C(C(=O)OC)=C(C)N=C(N1)N32 (stereo partly drawn),GI50,[1],9.4 µM (inactive)
same,GI50,[2],10.5 µM (inactive)
same,GI50,[3],18.7 µM (inactive)
same,GI50,[4],5.13 µM (inactive)
same,GI50,[5],16.1 µM (inactive)
same,GI50,[6],4.72 µM (inactive)
same,GI50,[7],16.5 µM
same,GI50,[8],6 µM (inactive)
same,GI50,[53],6.93 µM (inactive)
same,GI50,[9],9.86 µM (inactive)
same,GI50,[10],15.3 µM (inactive)
same,GI50,[11],12.3 µM (inactive)
same,GI50,[12],17.3 µM (inactive)
same,GI50,[13],14.6 µM (inactive)
same,GI50,[14],3.85 µM (inactive)
same,GI50,[15],2.25 µM (inactive)
same,GI50,[16],4.18 µM (inactive)
same,GI50,[17],4.25 µM (inactive)
same,GI50,[18],4.79 µM (inactive)
same,GI50,[19],21 µM (inactive)
same,GI50,[20],3.29 µM (inactive)
same,GI50,[21],10.5 µM (inactive)
same,GI50,[22],3.27 µM (inactive)
same,GI50,[23],3.21 µM (inactive)
same,GI50,[24],4.66 µM (inactive)
same,GI50,[25],15.6 µM (inactive)
same,GI50,[26],10.5 µM (inactive)
same,GI50,[27],4.52 µM (inactive)
same,GI50,[28],4.22 µM (inactive)
same,GI50,[29],3.37 µM (inactive)
same,GI50,[30],2.96 µM (inactive)
same,GI50,[31],18 µM (inactive)
same,GI50,[32],10.6 µM (inactive)
same,GI50,[33],4.25 µM (inactive)
same,GI50,[54],10 µM (inactive)
same,GI50,[34],11.1 µM (inactive)
same,GI50,[35],5.32 µM (inactive)
same,GI50,[36],3.43 µM (inactive)
same,GI50,[55],5.71 µM (inactive)
same,GI50,[37],3.47 µM (inactive)
same,GI50,[38],> 100 µM (inactive)
same,GI50,[40],10.6 µM (inactive)
same,GI50,[41],5.05 µM (inactive)
same,GI50,[42],3.64 µM (inactive)
same,GI50,[56],10.6 µM (inactive)
same,GI50,[43],6.41 µM (inactive)
same,GI50,[44],3.72 µM (inactive)
same,GI50,[45],2.86 µM (inactive)
same,GI50,[57],6.98 µM (inactive)
same,GI50,[46],5.25 µM (inactive)
same,GI50,[47],5.46 µM (inactive)
same,GI50,[48],3.91 µM (inactive)
same,GI50,[49],13.2 µM (inactive)
same,GI50,[50],6.17 µM (inactive)
same,GI50,[58],8.22 µM (inactive)
same,GI50,[51],2.64 µM (inactive)
same,GI50,[52],3.65 µM (inactive)
CCc1nc(N)nc(N)c1-c1ccc([N+](=O)[O-])c(Cl)c1,GI50,[1],2.59 µM (inactive)
same,GI50,[2],31 µM (inactive)
same,GI50,[3],5.83 µM (inactive)
same,GI50,[4],37.3 µM (inactive)
same,GI50,[5],2.73 µM (inactive)
same,GI50,[6],3.31 µM (inactive)
same,GI50,[7],1.35 µM
same,GI50,[8],8.36 µM (inactive)
same,GI50,[53],46.5 µM (inactive)
same,GI50,[9],1.44 µM (inactive)
same,GI50,[10],9.04 µM (inactive)
same,GI50,[11],0.416 µM (active)
same,GI50,[12],4.55 µM (inactive)
same,GI50,[13],13.3 µM (inactive)
same,GI50,[14],3.56 µM (inactive)
same,GI50,[15],1.99 µM (inactive)
same,GI50,[16],17.9 µM (inactive)
same,GI50,[17],0.457 µM (active)
same,GI50,[18],3.7 µM (inactive)
same,GI50,[19],36.5 µM (inactive)
same,GI50,[20],3.76 µM (inactive)
same,GI50,[21],> 100 µM (inactive)
same,GI50,[22],3.1 µM (inactive)
same,GI50,[23],11.5 µM (inactive)
same,GI50,[24],32.4 µM (inactive)
same,GI50,[25],1.49 µM (inactive)
same,GI50,[26],5.74 µM (inactive)
same,GI50,[27],1.73 µM (inactive)
same,GI50,[28],1.77 µM (inactive)
same,GI50,[29],12.5 µM (inactive)
same,GI50,[30],6.1 µM (inactive)
same,GI50,[31],25.2 µM (inactive)
same,GI50,[32],39.5 µM (inactive)
same,GI50,[33],1.78 µM (inactive)
same,GI50,[54],18.2 µM (inactive)
same,GI50,[34],34.7 µM (inactive)
same,GI50,[35],2.19 µM (inactive)
same,GI50,[36],6.87 µM (inactive)
same,GI50,[55],28.2 µM (inactive)
same,GI50,[37],0.855 µM (active)
same,GI50,[38],2.36 µM (inactive)
same,GI50,[39],27 µM (inactive)
same,GI50,[40],14.9 µM (inactive)
same,GI50,[41],4.29 µM (inactive)
same,GI50,[42],1.87 µM (inactive)
same,GI50,[56],27.5 µM (inactive)
same,GI50,[43],10.8 µM (inactive)
same,GI50,[44],4.55 µM (inactive)
same,GI50,[45],10 µM (inactive)
same,GI50,[57],30.4 µM (inactive)
same,GI50,[46],0.227 µM (active)
same,GI50,[47],2.65 µM (inactive)
same,GI50,[48],1.74 µM (inactive)
same,GI50,[49],24.9 µM (inactive)
same,GI50,[50],7.53 µM (inactive)
same,GI50,[58],4.27 µM (inactive)
same,GI50,[51],16.1 µM (inactive)
same,GI50,[52],0.42 µM (active)
O=[N+]([O-])/C=C/c1ccc2ccccc2c1,GI50,[1],3.99 µM (inactive)
same,GI50,[2],2.6 µM (inactive)
same,GI50,[3],4.27 µM (inactive)
same,GI50,[4],3.82 µM (inactive)
same,GI50,[5],1.96 µM (inactive)
same,GI50,[6],2.79 µM (inactive)
same,GI50,[7],2.22 µM
same,GI50,[8],0.372 µM (active)
same,GI50,[53],13.3 µM (inactive)
same,GI50,[9],1.87 µM (inactive)
same,GI50,[10],7.41 µM (inactive)
same,GI50,[11],8.05 µM (inactive)
same,GI50,[12],8.43 µM (inactive)
same,GI50,[13],5.64 µM (inactive)
same,GI50,[14],3.6 µM (inactive)
same,GI50,[15],2.04 µM (inactive)
same,GI50,[16],2.19 µM (inactive)
same,GI50,[17],2.73 µM (inactive)
same,GI50,[18],2.69 µM (inactive)
same,GI50,[19],2.23 µM (inactive)
same,GI50,[20],3.04 µM (inactive)
same,GI50,[21],15.6 µM (inactive)
same,GI50,[22],1.92 µM (inactive)
same,GI50,[23],2.86 µM (inactive)
same,GI50,[24],4.44 µM (inactive)
same,GI50,[25],2.47 µM (inactive)
same,GI50,[26],22.7 µM (inactive)
same,GI50,[27],15.4 µM (inactive)
same,GI50,[28],2.85 µM (inactive)
same,GI50,[29],2.29 µM (inactive)
same,GI50,[30],9.68 µM (inactive)
same,GI50,[31],3.52 µM (inactive)
same,GI50,[32],0.692 µM (active)
same,GI50,[33],2.53 µM (inactive)
same,GI50,[54],6.62 µM (inactive)
same,GI50,[34],22.6 µM (inactive)
same,GI50,[35],3.19 µM (inactive)
same,GI50,[36],1.77 µM (inactive)
same,GI50,[55],2 µM (inactive)
same,GI50,[37],2.37 µM (inactive)
same,GI50,[38],4.61 µM (inactive)
same,GI50,[39],13 µM (inactive)
same,GI50,[40],2.74 µM (inactive)
same,GI50,[41],4.57 µM (inactive)
same,GI50,[42],6.49 µM (inactive)
same,GI50,[56],2.57 µM (inactive)
same,GI50,[43],4.07 µM (inactive)
same,GI50,[44],1.86 µM (inactive)
same,GI50,[57],7.89 µM (inactive)
same,GI50,[46],3.78 µM (inactive)
same,GI50,[47],3.99 µM (inactive)
same,GI50,[48],0.436 µM (active)
same,GI50,[49],6.21 µM (inactive)
same,GI50,[50],5.53 µM (inactive)
same,GI50,[51],2.49 µM (inactive)
same,GI50,[52],6.81 µM (inactive)
